Laboratory results: ChEMBL document CHEMBL1201862, “PubChem BioAssay data set” (2004)
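Five compound concentrations were applied to cells in 96-well plates for 48 hours; endpoints were derived by simple linear interpolation of the resulting dose-response curve. GI50 is the concentration that inhibits growth by half.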 Calls of active or inactive are those of the source. Rule as the data show it: active = GI50 up to about 1.1 µM and inactive = higher.

Tests used:
Experiment in all cases: inhibition of tumour cell growth, NCI panel, 48 h
CAKI-1 = test system: CAKI-1
CCRF-CEM = test system: CCRF-CEM
COLO 205 = test system: COLO 205
EKVX = test system: EKVX
HL-60 = test system: HL-60
HOP-92 = test system: HOP-92
Hs-578T = test system: Hs-578T
IGROV-1 = test system: IGROV-1
LOX IMVI = test system: LOX IMVI
MOLT-4 = test system: MOLT-4
NCI-H460 = test system: NCI-H460
NCI-H522 = test system: NCI-H522
NCI/ADR-RES = test system: NCI/ADR-RES
OVCAR-3 = test system: OVCAR-3
OVCAR-8 = test system: OVCAR-8
SF-268 = test system: SF-268
SK-MEL-28 = test system: SK-MEL-28
SK-OV-3 = test system: SK-OV-3
SNB-75 = test system: SNB-75
TK-10 = test system: TK-10

Row | SMILES | GI50 (CAKI-1) | GI50 (CCRF-CEM) | GI50 (COLO 205) | GI50 (EKVX) | GI50 (HL-60) | GI50 (HOP-92) | GI50 (Hs-578T) | GI50 (IGROV-1) | GI50 (LOX IMVI) | GI50 (MOLT-4) | GI50 (NCI-H460) | GI50 (NCI-H522) | GI50 (NCI/ADR-RES) | GI50 (OVCAR-3) | GI50 (OVCAR-8) | GI50 (SF-268) | GI50 (SK-MEL-28) | GI50 (SK-OV-3) | GI50 (SNB-75) | GI50 (TK-10)
1 | CC1CCC2C(C)C3C(CC4C5CC=C6CC(OC7OC(CO)C(O)C(OC8OC(CO)C(O)C(O)C8O)C7OC7OC(C)C(O)C(O)C7O)CCC6(C)C5CCC43C)N2C1 (stereo not given) | 11.3 µM (inactive) | 9.66 µM (inactive) | 16.7 µM (inactive) | 9.27 µM (inactive) | 8.24 µM (inactive) | 17.5 µM (inactive) | 13.7 µM (inactive) | 12.4 µM (inactive) | 15 µM (inactive) | 28.6 µM (inactive) | 18.5 µM (inactive) | 15.1 µM (inactive) | 17.9 µM (inactive) | 17.4 µM (inactive) | 15 µM (inactive) | 15.9 µM (inactive) | 7.94 µM (inactive) | 16 µM (inactive) | 9.57 µM (inactive) | 16.3 µM (inactive)
2 | O=C(CC1(O)C(=O)Nc2c(Cl)ccc(Cl)c21)c1ccco1 (stereo not given) | 26.1 µM (inactive) | 5.09 µM (inactive) | 17.5 µM (inactive) | 22.6 µM (inactive) | 14.7 µM (inactive) | 22.3 µM (inactive) | 26 µM (inactive) | 18.3 µM (inactive) | 10.9 µM (inactive) | 24.9 µM (inactive) | 20.4 µM (inactive) | 44.3 µM (inactive) | 23.7 µM (inactive) | 13.5 µM (inactive) | 27.2 µM (inactive) | 25.4 µM (inactive) | 19.5 µM (inactive) | 31.5 µM (inactive) | 27 µM (inactive) | > 53 µM (inactive)
3 | Cc1cn([C@@H]2O[C@H](CO)[C@@H](O)[C@@H]2O)c(=O)[nH]c1=O | > 1000 µM (inactive) | > 1000 µM (inactive) | > 1000 µM (inactive) | > 1000 µM (inactive) | > 1000 µM (inactive) | > 1000 µM (inactive) | > 1000 µM (inactive) | > 1000 µM (inactive) | > 1000 µM (inactive) | > 1000 µM (inactive) | > 1000 µM (inactive) | > 1000 µM (inactive) | > 1000 µM (inactive) | > 1000 µM (inactive) | > 1000 µM (inactive) | > 1000 µM (inactive) | > 1000 µM (inactive) | > 1000 µM (inactive) | > 1000 µM (inactive) | > 1000 µM (inactive)
4 | CC(CSc1nc2c(c(=N)n1-c1ccccc1)c(=S)n(-c1ccccc1)c(=S)n2-c1ccccc1)CN(C)C (stereo not given) | 1.61 µM (inactive) | 0.289 µM (active) | 1.83 µM (inactive) | 1.66 µM (inactive) | 0.615 µM (active) | 1.56 µM (inactive) | 2.5 µM (inactive) | 1.4 µM (inactive) | 1.05 µM (active) | 0.931 µM (active) | 1.97 µM (inactive) | 1.11 µM (active) | 3.08 µM (inactive) | 1.71 µM (inactive) | 1.6 µM (inactive) | 1.71 µM (inactive) | 2.12 µM (inactive) | 4.06 µM (inactive) | 1.78 µM (inactive) | 1.69 µM (inactive)
5 | Nc1ncnc2c1ccn2C/C=C/CO | > 100 µM (inactive) | > 100 µM (inactive) | > 100 µM (inactive) | > 100 µM (inactive) | > 100 µM (inactive) | > 100 µM (inactive) | > 100 µM (inactive) | > 100 µM (inactive) | > 100 µM (inactive) | > 100 µM (inactive) | > 100 µM (inactive) | > 100 µM (inactive) | > 100 µM (inactive) | > 100 µM (inactive) | > 100 µM (inactive) | > 100 µM (inactive) | > 100 µM (inactive) | > 100 µM (inactive) | > 100 µM (inactive) | > 100 µM (inactive)
6 | COC1=C(C)C(=O)c2c(c(COC(N)=O)c3n2CC(OC(C)=O)C3OC(C)=O)C1=O (stereo not given) | < 0.01 µM (active) | 0.153 µM (active) | 0.116 µM (active) | 0.202 µM (active) | < 0.0192 µM (active) | 0.186 µM (active) | 0.239 µM (active) | 0.0785 µM (active) | 0.0294 µM (active) | 0.242 µM (active) | < 0.01 µM (active) | 0.0137 µM (active) | 0.127 µM (active) | 0.09 µM (active) | 0.0789 µM (active) | 0.0766 µM (active) | 0.311 µM (active) | 0.41 µM (active) | 0.208 µM (active) | 0.388 µM (active)
7 | CN1C(=O)[C@H](c2c[nH]c3ccccc23)[C@H](c2c[nH]c3ccccc23)C1=O | 2.2 µM (inactive) | 18.6 µM (inactive) | 1.33 µM (inactive) | 29.4 µM (inactive) | 5.13 µM (inactive) | > 35.9 µM (inactive) | 31.3 µM (inactive) | 6.97 µM (inactive) | 17.7 µM (inactive) | 21.6 µM (inactive) | 23.9 µM (inactive) | 34.2 µM (inactive) | 27 µM (inactive) | 19.5 µM (inactive) | 31 µM (inactive) | 33.3 µM (inactive) | 33.7 µM (inactive) | 38.2 µM (inactive) | 34.7 µM (inactive) | 22 µM (inactive)
8 | O=[N+]([O-])c1cc2oc(CSc3ccccc3)nc2cc1Cl | 29 µM (inactive) | 37.5 µM (inactive) | 21.7 µM (inactive) | 30.7 µM (inactive) | 30.3 µM (inactive) | 26.6 µM (inactive) | 51.6 µM (inactive) | 33.9 µM (inactive) | 35.3 µM (inactive) | 22.3 µM (inactive) | 26.7 µM (inactive) | 29.3 µM (inactive) | 12.9 µM (inactive) | 30 µM (inactive) | 33.5 µM (inactive) | 58.7 µM (inactive) | 35.2 µM (inactive) | 29.5 µM (inactive) | 26.1 µM (inactive) | 35.8 µM (inactive)
9 | CC[C@@H](/C=C\CCC(=O)C[C@H](O)CCC=C(C)C)O[Si](C(C)C)(C(C)C)C(C)C | > 100 µM (inactive) | 80.4 µM (inactive) | 71.6 µM (inactive) | > 100 µM (inactive) | 46 µM (inactive) | 81.7 µM (inactive) | > 100 µM (inactive) | > 100 µM (inactive) | 90.8 µM (inactive) | > 100 µM (inactive) | > 100 µM (inactive) | 48.6 µM (inactive) | > 100 µM (inactive) | > 100 µM (inactive) | > 100 µM (inactive) | > 100 µM (inactive) | > 100 µM (inactive) | > 100 µM (inactive) | > 100 µM (inactive) | > 100 µM (inactive)
10 | Cc1ccc(OCC2OC(n3cnc4c(Cl)nc(N)nc43)CC2Oc2ccc(C)cc2)cc1 (stereo not given) | 1.76 µM (inactive) | > 74.6 µM (inactive) | 68.4 µM (inactive) | 9.2 µM (inactive) | 13.9 µM (inactive) | 11 µM (inactive) | 39.4 µM (inactive) | 19.4 µM (inactive) | 47.9 µM (inactive) | 25.2 µM (inactive) | 40.6 µM (inactive) | 3.61 µM (inactive) | 34.4 µM (inactive) | 21.6 µM (inactive) | 31.9 µM (inactive) | 41.6 µM (inactive) | > 51.4 µM (inactive) | > 69 µM (inactive) | > 70.8 µM (inactive) | 58.6 µM (inactive)
11 | O=[As](O)(O)c1ccc(/N=N/c2ccc(O)cc2)cc1 | > 100 µM (inactive) | > 100 µM (inactive) | > 100 µM (inactive) | > 100 µM (inactive) | > 100 µM (inactive) | > 100 µM (inactive) | > 100 µM (inactive) | > 100 µM (inactive) | > 100 µM (inactive) | 4.32 µM (inactive) | > 100 µM (inactive) | > 100 µM (inactive) | > 100 µM (inactive) | > 100 µM (inactive) | > 100 µM (inactive) | > 100 µM (inactive) | > 100 µM (inactive) | > 100 µM (inactive) | > 100 µM (inactive) | > 100 µM (inactive)
12 | Cn1c2ccccc2c2c(-c3ccccc3)[n+]3ccccc3nc21 | > 100 µM (inactive) | 30.5 µM (inactive) | 43.1 µM (inactive) | 36.1 µM (inactive) | 24.8 µM (inactive) | 14.6 µM (inactive) | 34.8 µM (inactive) | 26.7 µM (inactive) | 18.5 µM (inactive) | 42.2 µM (inactive) | 21.9 µM (inactive) | 25.4 µM (inactive) | > 100 µM (inactive) | 23.3 µM (inactive) | 36.3 µM (inactive) | 18.5 µM (inactive) | 20.5 µM (inactive) | > 100 µM (inactive) | 19.5 µM (inactive) | 31.9 µM (inactive)
13 | CC(C)(C)OC(=O)NCCCC(=O)NC1(c2cc3ccccc3s2)CCCCC1 | 22.1 µM (inactive) | 11.4 µM (inactive) | 13.8 µM (inactive) | 8.26 µM (inactive) | 6.76 µM (inactive) | 12.9 µM (inactive) | 24.6 µM (inactive) | 18 µM (inactive) | 16 µM (inactive) | 14.6 µM (inactive) | 17 µM (inactive) | 13.1 µM (inactive) | 16.7 µM (inactive) | 16.3 µM (inactive) | 19 µM (inactive) | 17.9 µM (inactive) | 14.1 µM (inactive) | 29.6 µM (inactive) | 5.11 µM (inactive) | 29 µM (inactive)
14 | CC(C)(C)OC(=O)c1ccc(NCc2cc(O)ccc2O)cc1 | 0.676 µM (active) | 0.363 µM (active) | 2.08 µM (inactive) | 2.62 µM (inactive) | 0.447 µM (active) | 1.34 µM (inactive) | 1.69 µM (inactive) | 1.77 µM (inactive) | 3.88 µM (inactive) | 1.03 µM (active) | 10.7 µM (inactive) | 0.24 µM (active) | 1.73 µM (inactive) | 1.04 µM (active) | 2.13 µM (inactive) | 3.44 µM (inactive) | 2.03 µM (inactive) | 6.05 µM (inactive) | 3.4 µM (inactive) | 2.13 µM (inactive)
